Tests used:
[1] = PREVLAR trial: adverse events; assay type: in vivo, human
From the text: Of potential significance for OM, decreased rates of several pathognomonic toxicities were seen (see Table 4).
• CTCAEv.4 are a set of criteria for the standardized classification of AEs of drugs used in cancer therapy.

[2] = system: CD2F1 mice, lethal total body irradiation; test: Survival after lethal total body irradiation; assay type: in vivo
Description: Mice were treated with vehicle or 10 mg/kg RRx-001 intraperitoneally 24 hours prior to irradiation (9.35 Gy delivered at 0.6 Gy/min).
CD2F1 mice were treated with lethal dose 70/30 whole body irradiation dose of 9.35 Gy at 0.6 Gy/min using a ^60Co source. Twenty-four hours prior to irradiation, all mice were intraperitoneally injected with either 10 mg/kg RRx-001 or the vehicle control (5% dimethyl sulfoxide in sterile water).

[3] = Arm 1: RRx-001 Pre-treatment + SOC Chemoradiation (N = 12)
[4] = Arm 1: RRx-001 pretreatment + SOC chemoradiation
[5] = Arm 2: RRx-001 Pre-treatment + 2 Concurrent Doses + SOC Chemoradiation (N = 11)
[6] = Arm 2: RRx-001 pretreatment + 2 concurrent doses + SOC chemoradiation
[7] = Arm 3: RRx-001 Pre-treatment + 6 Concurrent Doses + SOC Chemoradiation (N = 13)
[8] = Arm 3: RRx-001 pretreatment + 6 concurrent doses + SOC chemoradiation
[9] = 10 mg/kg 24 hours prior to lethal total body irradiation, vs vehicle control

O=C(CBr)N1CC([N+](=O)[O-])([N+](=O)[O-])C1 [RRx-001, 2-bromo-1-(3,3-dinitroazetidin-1-yl) ethan-1-one]
53.8%: SAE frequency: Lymphocyte count decreased [1, 8]
discomfort during infusion: toxicity attributed to RRx-001 ([1]; PREVLAR)
9.1%: Oral pain ([1]; Arm 2) | SAE frequency: Alanine aminotransferase increased [1, 6] | SAE frequency: Anemia [1, 6] | SAE frequency: Blood creatinine increased [1, 6] | SAE frequency: Candida infection [1, 6] | SAE frequency: Colitis [1, 6] | SAE frequency: Deafness [1, 6] | SAE frequency: Decreased appetite [1, 6] | SAE frequency: Device related thrombosis [1, 6] | SAE frequency: Dysphagia [1, 6] | SAE frequency: Flank pain [1, 6] | SAE frequency: Hypokalemia [1, 6] | SAE frequency: Hypophosphatasemia [1, 6] | SAE frequency: Laryngeal inflammation [1, 6] | SAE frequency: Leukocytosis [1, 6] | SAE frequency: Nausea [1, 6] | SAE frequency: Oral pain [1, 6] | SAE frequency: Oropharyngeal pain [1, 6] | SAE frequency: Stomatitis [1, 6] | SAE frequency: Sudden death [1, 6]
localized, mild, and transient: character of toxicity attributable specifically to RRx-001 ([1]; infusion)
7 days: increase in mean survival time [2, 9]
0%: Related anemia ([1]; Arm 1) | neutrophil count decrease ([1]; Arm 1) | related oral dysesthesia ([1]; Arm 1) | Oral pain ([1]; Arm 1, p=0.0095 vs control) | related constipation ([1]; Arm 1, p=0.0095 vs control) | Related anemia ([1]; Arm 2) | neutrophil count decrease ([1]; Arm 2) | related constipation ([1]; Arm 2) | related oral dysesthesia ([1]; Arm 2)
30.8%: SAE frequency: Dysphagia [1, 8] | SAE frequency: Neutrophil count decreased [1, 8] | SAE frequency: White blood cell count decreased [1, 8]
36.4%: SAE frequency: White blood cell count decreased [1, 6]
1 (8.3): reported adverse events (CTCAEv.4): Oral candidiasis [1, 3] | reported adverse events (CTCAEv.4): Vomiting [1, 3]
2 (15.4): reported adverse events (CTCAEv.4): Dysphagia [1, 7] | reported adverse events (CTCAEv.4): Weight decreased [1, 7]
none: radiation-induced skin injury ([1]; Arm 1, p=0.0007 vs control) | incidence of salivary duct inflammation ([1]; Arms 1 and 2, vs control 30%, N.S.) | incidence of dry mouth ([1]; Arms 1 and 2, vs control 60%, p=0.0028) | incidence of dysphagia ([1]; Arms 1 and 2, vs control 70%, p=0.0007) | weight loss ([1]; RRx-001-treated patients vs control 50%, p=0.0095)
did not statistically impact: impact on marrow-related AEs (anemia, neutropenia), renal function or the incidence of candidiasis ([1]; RRx-001 treatment vs control)
3 (23.1): reported adverse events (CTCAEv.4): Candida infection [1, 7] | reported adverse events (CTCAEv.4): Platelet count decreased [1, 7] | reported adverse events (CTCAEv.4): Vomiting [1, 7]
7 (53.8): reported adverse events (CTCAEv.4): Dysgeusia [1, 7]
~33.4%: reduction in the 30-day death risk ([2]; 1 dose of 10 mg/kg 24 hours prior to 9.35 Gy, vs vehicle control)
4 (30.8): reported adverse events (CTCAEv.4): Anemia [1, 7] | reported adverse events (CTCAEv.4): Decreased appetite [1, 7] | reported adverse events (CTCAEv.4): Dry mouth [1, 7] | reported adverse events (CTCAEv.4): Oral pain [1, 7] | reported adverse events (CTCAEv.4): Radiation skin injury [1, 7]
18.2%: radiation-induced skin injury ([1]; Arm 2) | SAE frequency: Acute kidney injury [1, 6]
72.7%: SAE frequency: Lymphocyte count decreased [1, 6]
33.4%: increase in survival [2, 9]
1 (7.7): reported adverse events (CTCAEv.4): Neutrophil count decreased [1, 7] | reported adverse events (CTCAEv.4): Oral candidiasis [1, 7] | reported adverse events (CTCAEv.4): Salivary duct inflammation [1, 7] | reported adverse events (CTCAEv.4): White blood cell count decreased [1, 7]
7.7%: SAE frequency: Complication associated with device [1, 8] | SAE frequency: Dry Mouth [1, 8] | SAE frequency: Embolism [1, 8] | SAE frequency: Gastric Perforation [1, 8] | SAE frequency: Hypocalcemia [1, 8] | SAE frequency: Hypokalemia [1, 8] | SAE frequency: Hypophosphatasemia [1, 8] | SAE frequency: Hypotension [1, 8] | SAE frequency: Lung infection [1, 8] | SAE frequency: Nausea [1, 8] | SAE frequency: Oral dysaesthesia [1, 8] | SAE frequency: Oral dysesthesia [1, 8] | SAE frequency: Oral pain [1, 8] | SAE frequency: Oropharyngeal pain [1, 8] | SAE frequency: Salivary duct inflammation [1, 8] | SAE frequency: Stomatitis [1, 8] | SAE frequency: Swelling face [1, 8] | SAE frequency: Tumor pain [1, 8] | SAE frequency: Vomiting [1, 8] | SAE frequency: Weight decreased [1, 8]
0 (0): reported adverse events (CTCAEv.4): Anemia [1, 3] | reported adverse events (CTCAEv.4): Blood creatinine increased [1, 3] | reported adverse events (CTCAEv.4): Blood urea increased [1, 3] | reported adverse events (CTCAEv.4): Candida infection [1, 3] | reported adverse events (CTCAEv.4): Constipation [1, 3] | reported adverse events (CTCAEv.4): Decreased appetite [1, 3] | reported adverse events (CTCAEv.4): Dermatitis [1, 3] | reported adverse events (CTCAEv.4): Dry mouth [1, 3] | reported adverse events (CTCAEv.4): Dysgeusia [1, 3] | reported adverse events (CTCAEv.4): Dysphagia [1, 3] | reported adverse events (CTCAEv.4): Glossodynia [1, 3] | reported adverse events (CTCAEv.4): Laryngeal inflammation [1, 3] | reported adverse events (CTCAEv.4): Neutrophil count decreased [1, 3] | reported adverse events (CTCAEv.4): Oral dysaesthesia [1, 3] | reported adverse events (CTCAEv.4): Oral dysesthesia [1, 3] | reported adverse events (CTCAEv.4): Oral pain [1, 3] | reported adverse events (CTCAEv.4): Platelet count decreased [1, 3] | reported adverse events (CTCAEv.4): Radiation skin injury [1, 3] | reported adverse events (CTCAEv.4): Salivary duct inflammation [1, 3] | reported adverse events (CTCAEv.4): Weight decreased [1, 3] | reported adverse events (CTCAEv.4): White blood cell count decreased [1, 3] | reported adverse events (CTCAEv.4): Anemia [1, 5] | reported adverse events (CTCAEv.4): Blood urea increased [1, 5] | reported adverse events (CTCAEv.4): Constipation [1, 5] | reported adverse events (CTCAEv.4): Decreased appetite [1, 5] | reported adverse events (CTCAEv.4): Dermatitis [1, 5] | reported adverse events (CTCAEv.4): Dry mouth [1, 5] | reported adverse events (CTCAEv.4): Dysgeusia [1, 5] | reported adverse events (CTCAEv.4): Dysphagia [1, 5] | reported adverse events (CTCAEv.4): Glossodynia [1, 5] | reported adverse events (CTCAEv.4): Laryngeal inflammation [1, 5] | reported adverse events (CTCAEv.4): Neutrophil count decreased [1, 5] | reported adverse events (CTCAEv.4): Oral candidiasis [1, 5] | reported adverse events (CTCAEv.4): Oral dysaesthesia [1, 5] | reported adverse events (CTCAEv.4): Oral dysesthesia [1, 5] | reported adverse events (CTCAEv.4): Platelet count decreased [1, 5] | reported adverse events (CTCAEv.4): Salivary duct inflammation [1, 5] | reported adverse events (CTCAEv.4): Weight decreased [1, 5] | reported adverse events (CTCAEv.4): White blood cell count decreased [1, 5] | reported adverse events (CTCAEv.4): Blood creatinine increased [1, 7] | reported adverse events (CTCAEv.4): Blood urea increased [1, 7] | reported adverse events (CTCAEv.4): Constipation [1, 7] | reported adverse events (CTCAEv.4): Dermatitis [1, 7] | reported adverse events (CTCAEv.4): Glossodynia [1, 7] | reported adverse events (CTCAEv.4): Laryngeal inflammation [1, 7] | reported adverse events (CTCAEv.4): Oral dysaesthesia [1, 7] | reported adverse events (CTCAEv.4): Oral dysesthesia [1, 7]
none were attributed to RRx-001: SAEs attributed to RRx-001 ([1]; PREVLAR)
27.3%: SAE frequency: Neutrophil count decreased [1, 6]
2 (18.2): reported adverse events (CTCAEv.4): Blood creatinine increased [1, 5] | reported adverse events (CTCAEv.4): Radiation skin injury [1, 5]
67%: Survival over 30 days post-exposure ([2]; 10 mg/kg intraperitoneally 24 hours prior to 9.35 Gy at 0.6 Gy/min)
16.7%: SAE frequency: Oropharyngeal pain [1, 4] | SAE frequency: White blood cell count decreased [1, 4]
1 (9.1): reported adverse events (CTCAEv.4): Candida infection [1, 5] | reported adverse events (CTCAEv.4): Oral pain [1, 5] | reported adverse events (CTCAEv.4): Vomiting [1, 5]
15.4%: SAE frequency: Decreased appetite [1, 8] | SAE frequency: Gastrointestinal tube insertion [1, 8]
1%: related vomiting ([1]; Arm 1) | related vomiting ([1]; Arm 2)
33.3%: SAE frequency: Lymphocyte count decreased [1, 4]
8.3%: SAE frequency: Anemia [1, 4] | SAE frequency: Atrial flutter [1, 4] | SAE frequency: Decreased appetite [1, 4] | SAE frequency: Dysgeusia [1, 4] | SAE frequency: Febrile neutropenia [1, 4] | SAE frequency: Hypertension [1, 4] | SAE frequency: Hypoacusis [1, 4] | SAE frequency: Hypokalemia [1, 4] | SAE frequency: Nausea [1, 4] | SAE frequency: Neutrophil count decreased [1, 4] | SAE frequency: Respiratory tract infection [1, 4] | SAE frequency: Vomiting [1, 4] | SAE frequency: Weight decreased [1, 4]

Source: patent US20260240810A1, “COMPOSITIONS AND METHODS FOR REDUCING ADVERSE SIDE EFFECTS IN CANCER TREATMENT” (priority 2022, published 2026)
